Assay results reported in patent US12202835B2, “Substituted aromatic ring-linked dioxinoquinazolines and dioxinoquinolines as kinase inhibitors” (BEIJING SCITECH-MQ PHARMACEUTICALS LIMITED, priority 2018, dated 2025).

Assays:
Format in all cases: cell-based
[1] = test system: Ba/F3 LMNA-NTRK1-G595R cells; assay: Assay for inhibiting the proliferation of Ba/F3 LMNA-NTRK1-G595R cells (CCK-8); settings: Mus musculus, BaF3
Method: In particular, the method of the assay of small molecular compounds for inhibiting cell proliferation is as follows: • 1. Cells cultured to a logarithmic growth phase (adherent cells need to be digested with trypsin and neutralized) were taken, pipetted evenly, transferred to a 15 mL centrifuge tube, and centrifuged at 1000 rpm at room temperature for 4 minutes; • 2. The supernatant was discarded; 5 mL of complete medium was added and pipetted evenly; 10 μL of cell suspension was taken out, mixed well with 10 μL of 0.4% trypan blue, and counted under a cell counter; the proportion of living cells was ensured to be above 90%; • 3. 80 μL of cell suspension per well was seeded into a 96-well plate according to the conditions shown in the attached table, and cultured overnight; in the outer 36 wells of the 96-well plate, no cells were added but only sterile water was added; only the inner 60 wells were used for cell assay and control; • 4. 5×compound dilution: the compounds were serially diluted 3-fold to obtain a total of 9 concentrations; 80-fold overall dilution was completed with complete medium, the resulting concentration was 5 times the final drug concentration, and DMSO concentration was 1.25%; • 5. 20 μL of the corresponding compounds with different concentration gradients were added to each well of assay wells of the 96-well plate; 20 μL of complete medium was added to positive and negative control wells and shaken well; and the final concentration of DMSO in each well was 0.25%; • 6. After 72 hours of incubation, 10 μL of CCK-8 reagent was added to each well and further incubated at 37° C. for 1-2 hours; and the OD value was read at 450 nm; • 7. Cell survival rate (%)=[(As−Ab)/(Ac−Ab)]*100% • As: Assay well (medium containing cells, CCK-8, compound), • Ac: Control well (medium containing cells, CCK-8), • Ab: Blank well (CCK-8, medium without cell and compound), • 8. The values were imported into Graphpad Prism 5 software for IC50 calculation.

[2] = test system: MHCC97H cells; assay: Assay for inhibiting the proliferation of MHCC97H cells (CCK-8); settings: Homo sapiens
Procedure, shortened: (§1)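 Cells seeded in 96-well plates overnight, then exposed 72 h to 9 three-fold dilutions of compound (0.25% DMSO final). Viability by CCK-8 (1-2 h at 37° C., OD 450 nm), survival normalized to untreated and cell-free blanks; IC50 by curve fitting.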

[3] = test system: EBC1 cells; assay: Assay for inhibiting the proliferation of EBC1 cells (CCK-8); settings: Homo sapiens, EBC-1
Procedure, shortened: as §1

| Compound | IC50 [1] | IC50 [2] | IC50 [3] |
| --- | --- | --- | --- |
| CC(C)n1cc(C(=O)Nc2ccc(Oc3ccnc4cc(OCCCN5CCOCC5)c5c(c34)OCCO5)c(F)c2)c(=O)n(-c2ccc(F)cc2)c1=O [Example 16, N-(3-fluoro-4-((5-(3-morpholinopropoxy)-2,3-dihydro-[1,4]dioxino[2,3-f]quinolin-10-yl)oxy)phenyl)-3-(4-fluorophenyl)-1-isopropyl-2,4-dioxo-1,2,3,4-tetrahydropyrimidine-5-carboxamide] | 200 to 1000 nM | – | – |
| COc1cc2ncnc(Oc3ccc(NC(=O)c4cn(C)c(=O)n(-c5ccc(F)cc5)c4=O)cc3F)c2c2c1OCCO2 [Example 29, N-(3-fluoro-4-((5-methoxy-2,3-dihydro-[1,4]dioxino[2,3-f]quinazolin-10-yl)oxy)phenyl)-3-(4-fluorophenyl)-1-methyl-2,4-dioxo-1,2,3,4-tetrahydropyrimidine-5-carboxamide] | 200 to 1000 nM | – | – |
| C=CCn1cc(C(=O)Nc2ccc(Oc3ccnc4cc(OC)c5c(c34)OCCO5)c(F)c2)c(=O)n(-c2ccc(F)cc2)c1=O [Example 100, N-(3-fluoro-4-((5-methoxy-2,3-dihydro-[1,4]dioxino[2,3-f]quinolin-10-yl)oxy)phenyl)-3-(4-fluorophenyl)-1-allyl-2,4-dioxo-1,2,3,4-tetrahydropyrimidine-5-carboxamide] | – | ≤ 50 nM | ≤ 50 nM |
| COc1cc2nccc(Oc3ccc(NC(=O)c4cn(CCF)c(=O)n(-c5ccc(F)cc5)c4=O)cc3F)c2c2c1OCCO2 [Example 101, N-(3-fluoro-4-((5-methoxy-2,3-dihydro-[1,4]dioxino[2,3-f]quinolin-10-yl)oxy)phenyl)-3-(4-fluorophenyl)-1-(2-fluoroethyl)-2,4-dioxo-1,2,3,4-tetrahydropyrimidine-5-carboxamide] | – | ≤ 50 nM | ≤ 50 nM |
| CCOc1ccn(-c2ccc(F)cc2)c(=O)c1C(=O)Nc1ccc(Oc2ccnc3cc(OCC4(N)CC4)c4c(c23)OCCO4)c(F)c1 [Example 105, N-(4-((5-((1-aminocyclopropyl)methoxy)-2,3-dihydro-[1,4]dioxino[2,3-f]quinolin-10-yl)oxy)-3-fluorophenyl)-4-ethoxy-1-(4-fluorophenyl)-2-oxo-1,2-dihydropyridine-3-carboxamide] | – | 50 to 200 nM | ≤ 50 nM |
| CC(C)n1cc(C(=O)Nc2ccc(Oc3ccnc4cc(OCC5(N)CC5)c5c(c34)OCCO5)c(F)c2)c(=O)n(-c2ccc(F)cc2)c1=O [Example 106, N-(3-fluoro-4-((5-((1-aminocyclopropyl)methoxy)-2,3-dihydro-[1,4]dioxino[2,3-f]quinolin-1 0-yl)oxy)phenyl)-3-(4-fluorophenyl)-1-isopropyl-2,4-dioxo-1,2,3,4-tetrahydropyrimidine-5-carboxamide] | – | 50 to 200 nM | ≤ 50 nM |
| CCOc1ccn(-c2ccc(C)cc2)c(=O)c1C(=O)Nc1ccc(Oc2ccnc3cc(OC)c4c(c23)OCCO4)c(F)c1 [Example 112, N-(3-fluoro-4-((5-methoxy-2,3-dihydro-[1,4]dioxino[2,3-f]quinolin-10-yl)oxy)phenyl)-2-oxo-4-ethoxy-1-(4-methylphenyl)-1,2-dihydropyridin-3-carboxamide] | – | 200 to 1000 nM | 50 to 200 nM |
| CCOc1ccn(-c2ccc(Cl)cc2)c(=O)c1C(=O)Nc1ccc(Oc2ccnc3cc(OC)c4c(c23)OCCO4)c(F)c1 [Example 113, N-(3-fluoro-4-((5-methoxy-2,3-dihydro-[1,4]dioxino[2,3-f]quinolin-10-yl)oxy)phenyl)-2-oxo-4-ethoxy-1-(4-chlorophenyl)-1,2-dihydropyridin-3-carboxamide] | – | 50 to 200 nM | 50 to 200 nM |
| CCOc1ccn(-c2cccc(F)c2)c(=O)c1C(=O)Nc1ccc(Oc2ccnc3cc(OC)c4c(c23)OCCO4)c(F)c1 [Example 114, N-(3-fluoro-4-((5-methoxy-2,3-dihydro-[1,4]dioxino[2,3-f]quinolin-10-yl)oxy)phenyl)-2-oxo-4-ethoxy-1-(3-fluorophenyl)-1,2-dihydropyridin-3-carboxamide] | – | 50 to 200 nM | 50 to 200 nM |
| CCOc1ccn(-c2ccc(F)cc2)c(=O)c1C(=O)Nc1cc(F)c(Oc2ccnc3cc(OC)c4c(c23)OCCO4)cc1Cl [Example 115, N-(2-chloro-5-fluoro-4-((5-methoxy-2,3-dihydro-[1,4]dioxino[2,3-f]quinolin-10-yl)oxy)phenyl)-4-ethoxy-2-oxo-1-(4-fluorophenyl)-1,2-dihydropyridin-3-carboxamide] | – | ≤ 50 nM | ≤ 50 nM |

Continued, in another order:

| IC50 [1] | Compound | IC50 [2] | IC50 [3] |
| --- | --- | --- | --- |
| 200 to 1000 nM | Cn1cc(C(=O)Nc2ccc(Oc3ncnc4cc(OCCCN5CCOCC5)c5c(c34)OCCO5)c(F)c2)c(=O)n(-c2ccc(F)cc2)c1=O [Example 30, N-(3-fluoro-4-((5-(3-morpholinopropoxy)-2,3-dihydro-[1,4]dioxino[2,3-f]quinazolin-10-yl)oxy)phenyl)-3-(4-fluorophenyl)-1-methyl-2,4-dioxo-1,2,3,4-tetrahydropyrimidine-5-carboxamide] | – | – |
| 50 to 200 nM | CCn1cc(C(=O)Nc2ccc(Oc3ccnc4cc(OC)c5c(c34)OCCO5)c(F)c2)c(=O)n(-c2ccc(F)cc2)c1=O [Example 37, N-(3-fluoro-4-((5-methoxy-2,3-dihydro-[1,4]dioxino[2,3-f]quinolin-10-yl)oxy)phenyl)-3-(4-fluorophenyl)-1-ethyl-2,4-dioxo-1,2,3,4-tetrahydropyrimidine-5-carboxamide] | – | – |
| 200 to 1000 nM | CCn1cc(C(=O)Nc2ccc(Oc3ccnc4cc(OCCCN5CCOCC5)c5c(c34)OCCO5)c(F)c2)c(=O)n(-c2ccc(F)cc2)c1=O [Example 38, N-(3-fluoro-4-((5-(3-morpholinopropoxy)-2,3-dihydro-[1,4]dioxino[2,3-f]quinolin-10-yl)oxy)phenyl)-3-(4-fluorophenyl)-1-ethyl-2,4-dioxo-1,2,3,4-tetrahydropyrimidine-5-carboxamide] | – | – |
| 200 to 1000 nM | CC(C)n1cc(C(=O)Nc2ccc(Oc3ccnc4cc(OCCCN(C)C5CCC5)c5c(c34)OCCO5)c(F)c2)c(=O)n(-c2ccc(F)cc2)c1=O [Example 96, N-(3-fluoro-4-((5-(3-((cyclobutyl)(methyl)amino)propoxy)-2,3-dihydro-[1,4]dioxino[2,3-f]quinolin-10-yl)oxy)phenyl)-3-(4-fluorophenyl)-1-isopropyl-2,4-dioxo-1,2,3,4-tetrahydropyrimidine-5-carboxamide] | – | – |
| 50 to 200 nM | CC(C)n1cc(C(=O)Nc2ccc(Oc3ccnc4cc(OCCCN5CCOCC5)c5c(c34)OCCO5)c(Cl)c2)c(=O)n(-c2ccc(F)cc2)c1=O [Example 97, N-(3-chloro-4-((5-(3-morpholinopropoxy)-2,3-dihydro-[1,4]dioxino[2,3-f]quinolin-10-yl)oxy)phenyl)-3-(4-fluorophenyl)-1-isopropyl-2,4-dioxo-1,2,3,4-tetrahydropyrimidine-5-carboxamide] | – | – |
| 50 to 200 nM | Cn1cc(C(=O)Nc2ccc(Oc3ccnc4cc(OCCCN5CCOCC5)c5c(c34)OCCO5)cc2Cl)c(=O)n(-c2ccc(F)cc2)c1=O [Example 98, N-(2-chloro-4-((5-(3-morpholinopropoxy)-2,3-dihydro-[1,4]dioxino[2,3-f]quinolin-10-yl)oxy)phenyl)-3-(4-fluorophenyl)-1-methyl-2,4-dioxo-1,2,3,4-tetrahydropyrimidine-5-carboxamide] | – | – |
| 200 to 1000 nM | CC(C)n1cc(C(=O)Nc2ccc(Oc3ccnc4cc(OCC(C)(C)O)c5c(c34)OCCO5)c(F)c2)c(=O)n(-c2ccc(F)cc2)c1=O [Example 122, N-(3-fluoro-4-((5-(2-hydroxy-2-methylpropoxy)-2,3-dihydro-[1,4]dioxino[2,3-f]quinolin-10-yl)oxy)phenyl)-3-(4-fluorophenyl)-1-isopropyl-2,4-dioxo-1,2,3,4-tetrahydropyrimidine-5-carboxamide] | – | – |
| ≤ 50 nM | COc1cc2nccc(Oc3ccc(NC(=O)c4cn(C)c(=O)n(-c5ccc(F)cc5)c4=O)c(Cl)c3)c2c2c1OCCO2 [Example 125, N-(2-chloro-4-((5-methoxy-2,3-dihydro-[1,4]dioxino[2,3-f]quinolin-10-yl)oxy)phenyl)-3-(4-fluorophenyl)-1-methyl-2,4-dioxo-1,2,3,4-tetrahydropyrimidine-5-carboxamide] | – | – |
| ≤ 50 nM | CCOc1cc2nccc(Oc3ccc(NC(=O)c4cn(C)c(=O)n(-c5ccc(F)cc5)c4=O)c(Cl)c3)c2c2c1OCCO2 [Example 129, N-(2-chloro-4-((5-ethoxy-2,3-dihydro-[1,4]dioxino[2,3-f]quinolin-10-yl)oxy)phenyl)-3-(4-fluorophenyl)-1-methyl-2,4-dioxo-1,2,3,4-tetrahydropyrimidine-5-carboxamide] | – | – |
